The experiment has as its target SARS-CoV-2 Mac1 (Severe acute respiratory syndrome coronavirus 2, UniProt P0DTD1). The experiment is described as follows: biochemical. The following applies: for inhibition at 100 µM: read-out: %inhibition; for %inhibition: 100 µM, inhibitor.

Where a name gives a salt, the structure may show the parent alone.

Take `CCOC(=O)[C@H](CCc1ccccc1)N[C@H]1CCc2ccccc2N(CC(=O)O)C1=O` [Benazepril HCl]: the inhibition at 100 µM came out at 0%.

As for `O=C(O)COc1nn(Cc2ccccc2)c2ccccc12` [Bendazac], the inhibition at 100 µM came out at 3.85%.

For the compound `NS(=O)(=O)c1cc2c(cc1C(F)(F)F)NC(Cc1ccccc1)NS2(=O)=O` (stereo not shown) [Bendroflumethiazide], the inhibition at 100 µM came out at 0%.

Take `CC(COc1ccccc1Cc1ccccc1)N1CCCCC1` (stereo not shown) [Benproperine phosphate]: the inhibition at 100 µM is 0%.

In the case of `NC(CO)C(=O)NNCc1ccc(O)c(O)c1O` (stereo not shown) [Benserazide HCl], the inhibition at 100 µM worked out at 7.42%.

As to `O=C(O)c1ccc(NC(=O)[C@H](Cc2ccc(O)cc2)NC(=O)c2ccccc2)cc1` [Bentiromide], the inhibition at 100 µM is 3.94%.

In the case of `CCc1oc2ccccc2c1C(=O)c1cc(Br)c(O)c(Br)c1` [Benzbromarone], the inhibition at 100 µM amounted to 6.57%.

Regarding `O=C(Cn1ccnc1[N+](=O)[O-])NCc1ccccc1` [Benznidazole], the inhibition at 100 µM was 0%.

As for `CCOC(=O)c1ccc(N)cc1` [Benzocaine hydrochloride], the inhibition at 100 µM stood at 0%.

In the case of `O=C(O)c1ccccc1` [Benzoic Acid], the “%inhibition” value was determined as 1.824%.

On to `NS(=O)(=O)c1cc2c(cc1Cl)N=C(CSCc1ccccc1)NS2(=O)=O` [Benzthiazide], for which the inhibition at 100 µM was 0%.

Turning to `CN(C)CCCOc1nn(Cc2ccccc2)c2ccccc12` [Benzydamine HCl], the inhibition at 100 µM was 4.5%.

For `OCc1ccccc1` [Benzyl alcohol], the inhibition at 100 µM amounted to 0%.

Turning to `O=C(OCc1ccccc1)c1ccccc1` [Benzyl benzoate], the inhibition at 100 µM worked out at 0%.

With `CC1(C)S[C@@H]2[C@H](NC(=O)Cc3ccccc3)C(=O)N2[C@H]1C(=O)O` [Benzylpenicillin potassium], the “%inhibition” value is 8.229%.

Regarding `O=C(O)CCCN1CCC(O[C@@H](c2ccc(Cl)cc2)c2ccccn2)CC1` [Bepotastine Besilate], the inhibition at 100 µM came to 15%.

`COc1ccc2cc3[n+](cc2c1OC)CCc1cc2c(cc1-3)OCO2` [Berberine Sulfate]: the “%inhibition” value is reported as 0%.

Consider `COc1ccc2cc3[n+](cc2c1OC)CCc1cc2c(cc1-3)OCO2` [Berberine chloride], for which the “%inhibition” value was found to be 8.063%.

For the compound `N[C@@H]1CCCCN(c2c(F)cc3c(=O)c(C(=O)O)cn(C4CC4)c3c2Cl)C1` [Besifloxacin HCl], the inhibition at 100 µM worked out at 0%.

As for `CC1=C(/C=C/C(C)=C/C=C/C(C)=C/C=C/C=C(C)/C=C/C=C(C)/C=C/C2=C(C)CCCC2(C)C)C(C)(C)CCC1` [Beta Carotene], the inhibition at 100 µM turned out to be 7.3%.

Turning to `CNCCc1ccccn1` [Betahistine mesylate], the inhibition at 100 µM worked out at 0%.

On to `C[N+](C)(C)CC(=O)O` [Betaine], for which the inhibition at 100 µM is 0%.

With `CCC(=O)OCC(=O)[C@@]1(OC(=O)CC)[C@@H](C)C[C@H]2[C@@H]3CCC4=CC(=O)C=C[C@]4(C)[C@@]3(F)[C@@H](O)C[C@@]21C` [Betamethasone Dipropionate], the inhibition at 100 µM amounted to 5.5%.

In the case of `CCCCC(=O)O[C@]1(C(=O)CO)[C@@H](C)C[C@H]2[C@@H]3CCC4=CC(=O)C=C[C@]4(C)[C@@]3(F)[C@@H](O)C[C@@]21C` [Betamethasone Valerate], the inhibition at 100 µM was 0%.

Take `C[C@H]1C[C@H]2[C@@H]3CCC4=CC(=O)C=C[C@]4(C)[C@@]3(F)[C@@H](O)C[C@]2(C)[C@@]1(O)C(=O)CO` [Betamethasone]: the “%inhibition” value turned out to be 1.437%.

`O=C(O)CCNC(=O)c1ccccc1` [Betamipron]: the inhibition at 100 µM was determined as 7.69%.

Turning to `CC(C)NCC(O)COc1ccc(CCOCC2CC2)cc1` (stereo not shown) [Betaxolol HCl], the “%inhibition” value worked out at 10.86%.

Consider `CC(C)NCC(O)COc1ccc(CCOCC2CC2)cc1` (stereo not shown) [Betaxolol], for which the “%inhibition” value amounted to 0%.

Consider `CC(C[N+](C)(C)C)OC(N)=O` (stereo not shown) [Bethanechol chloride], for which the inhibition at 100 µM came out at 0%.

As for `COc1ccc(NC(=O)c2ccc(C(=N)N(C)C)cc2)c(C(=O)Nc2ccc(Cl)cn2)c1` [Betrixaban maleate], the “%inhibition” value stood at 3.06%.

Turning to `COc1ccc(NC(=O)c2ccc(C(=N)N(C)C)cc2)c(C(=O)Nc2ccc(Cl)cn2)c1` [Betrixaban], the “%inhibition” value came to 0%.

In the case of `COc1ccc(CCNCC(O)COc2cccc(C)c2)cc1OC` (stereo not shown) [Bevantolol hydrochloride], the inhibition at 100 µM was determined as 17.4%.

With `C=C(c1ccc(C(=O)O)cc1)c1cc2c(cc1C)C(C)(C)CCC2(C)C` [Bexarotene], the inhibition at 100 µM was 0%.

On to `CC(C)(Oc1ccc(CCNC(=O)c2ccc(Cl)cc2)cc1)C(=O)O` [Bezafibrate], for which the inhibition at 100 µM amounted to 9.85%.

Regarding `C[C@@H](O)[C@H]1C(=O)N2C(C(=O)[O-])=C(SC3Cn4cnc[n+]4C3)[C@H](C)[C@H]12` (stereo partly shown) [Biapenem], the inhibition at 100 µM was found to be 5.82%.

For the compound `CC(O)(CS(=O)(=O)c1ccc(F)cc1)C(=O)Nc1ccc(C#N)c(C(F)(F)F)c1` (stereo not shown) [Bicalutamide], the inhibition at 100 µM turned out to be 0%.

`c1ccc(-c2ccc(C(c3ccccc3)n3ccnc3)cc2)cc1` (stereo not shown) [Bifonazole]: the inhibition at 100 µM is 37%.

In the case of `CCOCCn1c(C2CCN(CCc3ccc(C(C)(C)C(=O)O)cc3)CC2)nc2ccccc21` [Bilastine], the inhibition at 100 µM was 0%.

`CCNC(=O)CCC/C=C\C[C@@H]1[C@@H](/C=C/[C@@H](O)CCc2ccccc2)[C@H](O)C[C@@H]1O` [Bimatoprost]: the inhibition at 100 µM came out at 0%.

In the case of `Cn1cnc2c(F)c(Nc3ccc(Br)cc3F)c(C(=O)NOCCO)cc21` [Binimetinib (MEK162, ARRY-162, ARRY-438162)], the inhibition at 100 µM amounted to 24%.

`O=C(O)CCCC[C@@H]1SC[C@@H]2NC(=O)N[C@@H]21` [Biotin (Vitamin B7)]: the inhibition at 100 µM was 0%.

In the case of `CC[C@H](NC(=O)[C@H](C)NC)C(=O)N1C[C@@H](O)C[C@H]1Cc1c(-c2[nH]c3cc(F)ccc3c2C[C@@H]2C[C@H](O)CN2C(=O)[C@H](CC)NC(=O)[C@H](C)NC)[nH]c2cc(F)ccc12` [Birinapant], the inhibition at 100 µM was 3.17%.

`CC(=O)Oc1ccc(C(c2ccc(OC(C)=O)cc2)c2ccccn2)cc1` [Bisacodyl]: the inhibition at 100 µM was 0%.

As for `CC(C)NCC(O)COc1ccc(COCCOC(C)C)cc1` (stereo not shown) [Bisoprolol fumarate], the inhibition at 100 µM is 0%.

In the case of `Oc1c(Cl)cc(Cl)cc1Sc1cc(Cl)cc(Cl)c1O` [Bithionol], the inhibition at 100 µM came to 0%.

Regarding `C[C@H](Oc1ccc(S(C)(=O)=O)cc1C(=O)N1CCN(c2ncc(C(F)(F)F)cc2F)CC1)C(F)(F)F` [Bitopertin], the inhibition at 100 µM was determined as 0%.

For the compound `Cc1c(N)nc([C@H](CC(N)=O)NC[C@H](N)C(N)=O)nc1C(=O)N[C@H](C(=O)N[C@H](C)[C@@H](O)[C@H](C)C(=O)N[C@H](C(=O)NCCc1nc(-c2nc(C(=O)NCCC[S+](C)C)cs2)cs1)[C@@H](C)O)[C@@H](O[C@@H]1O[C@@H](CO)[C@@H](O)[C@H](O)[C@@H]1O[C@H]1O[C@H](CO)[C@@H](O)[C@H](OC(N)=O)[C@@H]1O)c1cnc[nH]1` [Bleomycin sulfate], the inhibition at 100 µM was found to be 0%.

Regarding `CC(C)(C)NC(=O)N[C@H](C(=O)N1C[C@H]2[C@@H]([C@H]1C(=O)NC(CC1CCC1)C(=O)C(N)=O)C2(C)C)C(C)(C)C` (stereo partly shown) [Boceprevir], the “%inhibition” value came to 2.103%.

In the case of `CC(C)C[C@H](NC(=O)[C@H](Cc1ccccc1)NC(=O)c1cnccn1)B(O)O` [Bortezomib (PS-341)], the inhibition at 100 µM was 54.2%.

One may read the inhibition as how much of the control response was suppressed. In general, %inhibition refers to the share of the control response that was lost under treatment.
